Laboratory results reported in patent US20240173377A1, “RETRO - INVERSO REGULATORY T CELL EPITOPES” (EpiVax, Inc., priority 2020, published 2024).
“Also recorded” adds a separate entry of the source.

Experiments:
human DR molecules = conditions: cited from earlier work
[1] = tested on: PBMCs from lupus patients; conditions: randomly selected lupus patients; cited from earlier work
[2] = biological target: Class II HLA alleles (HLA DRB1); assay: HLA binding assay (soluble MHC, competition with labeled control peptide); design: species or system human; conditions: retro-inverso peptide versus L-amino acid counterpart (SEQ ID NOS: 114 and 115); HLA DRB1 *0101, *0301, *0401, *0401, *0701, *1101, *1301 and *1501; FIG. 3
Protocol: HLA Binding Assay. Binding activity is analyzed at EpiVax (Providence, Rhode Island). The binding assay used (Steere A C et al., (2006), J Exp Med, 2003(4):961-71) yields an indirect measure of peptide-MHC affinity. Soluble HLA molecules are loaded onto a 96-well plate with the unlabeled experimental retro-inverso Tregitopes and labeled control peptide. Once the binding mixture reaches steady equilibrium (at 24 hours), the HLA-retro-inverso Tregitope complexes are captured on an ELISA plate coated with anti-human DR antibody and detected with a Europium-linked probe for the label (PerkinElmer, Waltham, MA). Time-resolved fluorescence measuring bound labeled control peptide is assessed by a SpectraMax® M5 unit (Spectramax, Radnor, PA). Binding of experimental retro-inverso Tregitopes is expressed as the percent inhibition of the labeled control peptide ([…]). The percent inhibition values for each experimental retro-inverso Tregitope (across a range of molar concentrations) is used to calculate the concentration at which it inhibits 50% of the labeled control […] specific binding, i.e. the retro-inverso Tregitope's IC50. […]

CD4+ T cells = assay: Tetanus Toxoid bystander assay, CD4+ T cell proliferation in PBMC (CFSE); type: cell-based, human; conditions: TT-treated PBMCs of four donors; versus L-amino acid counterparts (SEQ ID NOS: 114 and 115); FIGS. 7A-7B, 8A-8B
Text: The purpose of this experiment is to establish the ability of the instantly-disclosed retro-inverso Tregitopes (e.g., any one or more of SEQ ID NO: 1-29 and 42-107 and/or fragments and variants thereof, and optionally 1 to 12 additional amino acids distributed in any ratio on the N-terminus and/or C-terminus of the polypeptide of SEQ ID NOS: 1-29 and 42-107 as disclosed herein, wherein each of the amino acids of SEQ ID NOS: 1-29 and 42-107 (and in aspects, the optional extensions thereof) except for glycine are in the D-amino acid configuration) of the instant disclosure to suppress the proliferation CD4+ Tcells, including antigen stimulated CD4+ effector memory T cells, which in aspects is by either direct (engagement and activation of TReg) or indirect (modulation of APC phenotype) means. […]

| Sequence | binding to soluble HLA class II molecules (human DR molecules) | lupus patients whose PBMCs contain T cells that proliferate in response to the peptide [1] [%] | IC50 values, binding to HLA DRB1 alleles [2] | ability to reduce CD4+ cell proliferation (CD4+ T cells) |
| --- | --- | --- | --- | --- |
| RIHMVYSKRSGKPRGYAFIEY (listed as Homo sapiens) [peptide 131-151] | binds to a large panel of human DR molecules | 40 |  |  |
| KGYIFSHGTFHITLI [SEQ ID NO: 100] |  |  | scored comparably; also recorded: comparable affinity | comparable ability |
| DQHLVTLVSVVTYTSNYQEE [SEQ ID NO: 16] |  |  | scored comparably; also recorded: comparable affinity | comparable ability |
